Laboratory results taken from patent publication US11987575B2, “Tricyclic compounds as BCR-ABL inhibitors” (ASCENTAGE PHARMA (SUZHOU) CO., LTD., priority 2019, dated 2024).

Assays:
BaF3(WT) = BaF3(WT) (Homo sapiens, UniProt P00519); assay: WST (CCK-8) anti-proliferative assay, BaF3 WT; settings: read-out: BaF3(WT); BaF3 WT cells, 72 h treatment, CCK-8 readout OD 450 nm
BaF3 (T315I mutant) = BaF3 (T315I mutant) (Homo sapiens, UniProt P00519, T315I, cells depend on it); assay: WST (CCK-8) anti-proliferative assay, BaF3 T315I mutant; settings: read-out: BaF3 (T315I mutant), 72 h treatment, CCK-8 readout OD 450 nm

| GI50 (BaF3(WT)) [nM] | GI50 (BaF3 (T315I mutant)) [nM] | SMILES |
| --- | --- | --- |
| 8 | 45 | CC(C)N1c2c(-c3ccn[nH]3)cc(C(=O)Nc3ccc(OC(F)(F)Cl)cc3)cc2[C@@H]2CCS(=O)(=O)C[C@@H]21 [Compound 54-A, (4aS,9aR)-N-(4-(chlorodifluoromethoxy)phenyl)-9-isopropyl-8-(1H-pyrazol-5-yl)-1,3,4,4a,9,9a-hexahydrothiopyrano[3,4-b]indole-6-carboxamide 2,2-dioxide] |
| 56 | 440 | CC(=O)N[C@@H]1CC[C@H]2c3cc(C(=O)Nc4ccc(OC(F)(F)Cl)cc4)cc(-c4ccccn4)c3N(CC(C)(C)C)[C@@H]12 [Compound 56-A] |
| 97 | 316 | CC(=O)N[C@@H]1CC[C@H]2c3cc(C(=O)Nc4ccc(OC(F)(F)Cl)cc4)cc(-c4ccncn4)c3N(CC(C)(C)C)[C@@H]12 [Compound 57-A] |
| 18 | 80 | CC(=O)N[C@@H]1CC[C@H]2c3cc(C(=O)Nc4ccc(OC(F)(F)Cl)cc4)cc(-c4cnccn4)c3N(CC(C)(C)C)[C@@H]12 [Compound 58-A] |
| 65 | 122 | CC(=O)N[C@@H]1CC[C@H]2c3cc(C(=O)Nc4ccc(OC(F)(F)Cl)cc4)cc(-c4cccnn4)c3N(CC(C)(C)C)[C@@H]12 [Compound 59-A] |
| 13 | 92 | CC(=O)N[C@@H]1CC[C@H]2c3cc(C(=O)Nc4ccc(OC(F)(F)Cl)cc4)cc(-c4ccc(C)nc4)c3N(CC(C)(C)C)[C@@H]12 [Compound 60-A] |
| 11 | 56 | CC(=O)N[C@@H]1CC[C@H]2c3cc(C(=O)Nc4ccc(OC(F)(F)Cl)cc4)cc(-c4cnc(C)nc4)c3N(CC(C)(C)C)[C@@H]12 [Compound 61-A] |
| 21 | 41 | CC(=O)NC1CCC2c3cc(C(=O)Nc4ccc(OC(F)(F)Cl)cc4)cc(-c4ccn[nH]4)c3N(C3CC3)C12 (centres unmarked) [Compound 62] |
| 41 | 52 | COC(C)(C)CN1c2c(-c3ccn[nH]3)cc(C(=O)Nc3ccc(OC(F)(F)Cl)cc3)cc2C2CCC(NC(C)=O)C21 (centres unmarked) [Compound 63] |
| 8 | 43 | CC(=O)NC1CCC2c3cc(C(=O)Nc4ccc(OC(F)(F)Cl)cc4)cc(-c4cncc(F)c4)c3N(C3CCCC3)C12 (centres unmarked) [Compound 64] |
| 9 | 119 | CCC(CC)N1c2c(-c3cncc(F)c3)cc(C(=O)Nc3ccc(OC(F)(F)Cl)cc3)cc2C2CCC(NC(C)=O)C21 (centres unmarked) [Compound 65] |
| 3 | 29 | CC(=O)N[C@@H]1CC[C@H]2c3cc(C(=O)Nc4ccc(OC(F)(F)Cl)cc4)cc(-c4cccc(C#N)c4)c3N(C(C)C)[C@@H]12 [Compound 66-A] |
| 6 | 59 | CC(=O)N[C@@H]1CC[C@H]2c3cc(C(=O)Nc4ccc(OC(F)(F)Cl)cc4)cc(-c4cc(F)cnc4C#N)c3N(C(C)C)[C@@H]12 [Compound 67-A] |
